Among the data in patent US11261201B2 (priority 2018, dated 2022) are MIC values, retold here.

Test [1] relates to A. baumannii. In words: Gram negative MIC protocol (OD600, LB, 24 h). As to conditions: Acinetobacter baumannii.
Experimental: (§1) Overnight bacterial cultures were grown in LB with no added antibiotics at 37° C. with shaking. A 1:1000 dilution of these cultures into LB was exposed to concentration gradients of compounds in 96-well plates (100 μL per well assay volume). Resulting plates were incubated at 37° C. for 24 h without shaking, and OD600 was measured at the end of the incubation. MICs were determined as the lowest concentrations at which OD600 remained at baseline.
For test [2], the system named is H37RvMA. In words: Tuberculosis Alamar Blue/Resazurin assay (MIC). Format: cell-based. As to conditions: Mycobacterium tuberculosis, H37RV, read-out: WT H37Rv MTB Activity. (The colour change of resazurin is a common sign of viable cells or microbes.)
Test [3] concerns E. coli. In words: Gram negative MIC protocol (OD600, LB, 24 h). As to conditions: Escherichia coli.
Experimental: as §1
Setting [4] is: read-out: MIC A. baumannii LB Media, A. baumannii, LB media, 24 h, OD600.
Where [5] appears, read: read-out: MIC E. coli delta-TolC LB Media, E. coli delta-TolC, LB media, OD600.
[6] abbreviates: read-out: MIC WT E. coli LB Media, WT E. coli, LB media, OD600.
The mark [7] stands for this setting: read-out: MIC E. coli delta-TolC LB Media, E. coli delta-TolC strain, LB media, 24 h, OD600.
Where [8] appears, read: read-out: MIC WT E. coli LB Media, wild-type E. coli, LB media, 24 h, OD600.
[9] abbreviates: read-out: MIC A. baumannii LB Media.

Structures are written as SMILES. Values after ≈ are worked out from the molar mass of the structure shown. Read-outs that look alike come from different tables or passages of the source.

For the compound `CC1CC1C(C)NCc1ccccc1` (stereo not drawn) [B69], the MIC in test [1] (setting [4]), in test [2] (WT H37Rv MTB), in test [3] (setting [5]) and in test [3] (setting [6]) was over 150 µM in each case.
Regarding `CC(CC1CCCCC1)NCc1ccccc1OCCc1ccccc1F` (stereo not drawn) [B429, 1-cyclohexyl-N-(2-(2-fluorophenethoxy)benzyl)propan-2-amine], the MIC in test [1] (setting [4]) turned out to be 33 µM (≈ 12.2 µg/mL); in test [2] (WT H37Rv MTB), 20.2 µM (≈ 7.46 µg/mL); in test [3] (setting [5]), 2 µM (≈ 0.739 µg/mL); in test [3] (setting [6]), 55 µM (≈ 20.3 µg/mL).
In the case of `c1ccc(CNCCc2ccnc3ccccc23)cc1` [B119], the MIC in test [1] (setting [4]), in test [2] (WT H37Rv MTB), in test [3] (setting [5]) and in test [3] (setting [6]) was over 150 µM each time.
Take `Cc1nonc1COc1ccccc1CNC(C)CC1CCCCC1` (stereo not drawn) [B245]: the MIC in test [1] (setting [4]) stood at 150 µM (≈ 51.5 µg/mL); in test [2] (WT H37Rv MTB), 150 µM (≈ 51.5 µg/mL); in test [3] (setting [7]) it was 4 µM (≈ 1.37 µg/mL); in test [3] (setting [8]), 150 µM (≈ 51.5 µg/mL).
With `CC(CC1CCCCC1)NCc1ccccc1CS(C)(=O)=O` (stereo not drawn) [B424, 1-cyclohexyl-N-(2-((methylsulfonyl)methyl)benzyl)propan-2-amine], the MIC was 150 µM (≈ 48.5 µg/mL) in test [1] (setting [4]), over 150 µM in test [2] (WT H37Rv MTB), 3 µM (≈ 0.971 µg/mL) in test [3] (setting [5]) and 33 µM (≈ 10.7 µg/mL) in test [3] (setting [6]).
With `CC(NCc1ccccc1)C1CCCC1` (stereo not drawn) [B35], the MIC in test [1] (setting [4]), in test [2] (WT H37Rv MTB), in test [3] (setting [5]) and in test [3] (setting [6]) was over 150 µM in each case.
With `CC(NCc1ccccc1)C(C)C1CCCCC1` (stereo not drawn) [B89], the MIC in test [1] (setting [4]) is over 150 µM; in test [2] (WT H37Rv MTB) it was 91 µM (≈ 22.3 µg/mL); in test [3] (setting [5]), over 150 µM; in test [3] (setting [6]), 300 µM (≈ 73.6 µg/mL).
As for `CC(CC1CCCCC1)NCc1ccccc1OCCOCC(F)(F)C(F)(F)F` (stereo not drawn) [B262], the MIC in test [1] (setting [4]) was 91 µM (≈ 38.5 µg/mL); in test [2] (WT H37Rv MTB) it was 55 µM (≈ 23.3 µg/mL); in test [3] (setting [7]) it was 12 µM (≈ 5.08 µg/mL); in test [3] (setting [8]), 150 µM (≈ 63.5 µg/mL).
Turning to `COc1ccc(C(C)CNCc2ccccc2)cc1OC` (stereo not drawn) [B44], the MIC in test [1] (setting [4]), in test [2], in test [3] (setting [5]) and in test [3] (setting [6]) was over 150 µM each time.
On to `CC(CC1CCCCC1)NCc1ccccc1OCc1ccncc1` (stereo not drawn) [B283], for which the MIC turned out to be 91 µM (≈ 30.8 µg/mL) in test [1] (setting [4]), 150 µM (≈ 50.8 µg/mL) in test [2] (WT H37Rv MTB), 7 µM (≈ 2.37 µg/mL) in test [3] (setting [7]) and 91 µM (≈ 30.8 µg/mL) in test [3] (setting [8]).
For the compound `c1ccc(CNCCC2CCCOC2)cc1` (stereo not drawn) [B83], the MIC in test [1] (setting [4]), in test [2] (WT H37Rv MTB), in test [3] (setting [5]) and in test [3] (setting [6]) was over 150 µM in each case.
For `CC(CC1CCCCC1)NCc1ccccc1OCC1(CO)COC1` (stereo not drawn) [B269], the MIC in test [1] (setting [4]) is 55 µM (≈ 19.1 µg/mL); in test [2] (WT H37Rv MTB), over 150 µM; in test [3] (setting [7]) it was 7 µM (≈ 2.43 µg/mL); in test [3] (setting [8]), over 150 µM.
As for `COc1ccc2c(c1)CCCC2CNCc1ccccc1` (stereo not drawn) [B112], the MIC in test [1] (setting [4]), in test [2] (WT H37Rv MTB), in test [3] (setting [5]) and in test [3] (setting [6]) was over 150 µM throughout.
In the case of `c1ccc(CNCCc2ccc3c(c2)COC3)cc1` [B65], the MIC in test [1] (setting [9]), in test [2], in test [3] (setting [5]) and in test [3] (setting [6]) was over 150 µM in each case.
Regarding `CC(O)COc1ccccc1CNC(C)CC1CCCCC1` (stereo not drawn) [B361], the MIC in test [1] (setting [4]) is 91 µM (≈ 27.8 µg/mL); in test [2] (WT H37Rv MTB), over 150 µM; in test [3] (setting [7]), 4 µM (≈ 1.22 µg/mL); in test [3] (setting [8]) it was 91 µM (≈ 27.8 µg/mL).
`CC(CC1CCCCC1)NCc1ccccc1OCC1CN(C2CC2)C(=O)O1` (stereo not drawn) [B367]: the MIC in test [1] (setting [4]) is 150 µM (≈ 58 µg/mL); in test [2] (WT H37Rv MTB), over 150 µM; in test [3] (setting [7]), 5 µM (≈ 1.93 µg/mL); in test [3] (setting [8]), 150 µM (≈ 58 µg/mL).
For `c1ccc(CNCCc2ccc3cc[nH]c3c2)cc1` [B114], the MIC in test [1] (setting [9]), in test [2], in test [3] (setting [5]) and in test [3] (setting [6]) was over 150 µM in each case.
With `c1ccc(CNCCC2CCCCN2)cc1` (stereo not drawn) [B360], the MIC in test [1] (setting [4]), in test [2] (WT H37Rv MTB), in test [3] (setting [7]) and in test [3] (setting [8]) was over 150 µM throughout.
As for `CN1CC(COc2ccccc2CNCCC2=CCCCC2)OC1=O` (stereo not drawn) [B371], the MIC is over 150 µM in test [1] (setting [4]), over 150 µM in test [2] (WT H37Rv MTB), 33 µM (≈ 11.4 µg/mL) in test [3] (setting [7]) and over 150 µM in test [3] (setting [8]).
For the compound `c1ccc(CNCCc2ccc3ccccc3c2)cc1` [B133], the MIC was over 150 µM in test [1] (setting [4]), 55 µM (≈ 14.4 µg/mL) in test [2] (WT H37Rv MTB), over 150 µM in test [3] (setting [5]) and over 150 µM in test [3] (setting [6]).
For `CCOC(COc1ccccc1CNC(C)CC1CCCCC1)OCC` (stereo not drawn) [B298], the MIC in test [1] (setting [4]) is over 150 µM; in test [2] (WT H37Rv MTB), over 150 µM; in test [3] (setting [7]), 12 µM (≈ 4.36 µg/mL); in test [3] (setting [8]), over 150 µM.
